# Key:
# insulin = target: T1, insulin (Bos taurus, UniProt P01317); assay: Mean degree of derivatization of insulin with active esters (MALDI-TOF-MS); set-up: species or system bovine; settings: 35 nMoles insulin reacted with 350 nMoles active ester, pH 7.2, 90 min RT; three independent experiments
# T1 construct: 2 NH2-termini (chain A and B), 1 lysine side chain; purchased Sigma-Aldrich, Taufkirchen, FRG
# Method: (§1) Stock solutions of active esters of the labelling compounds summarized in Table 2 (4.2-9.2 mg/ml, 14 mM) as well as labelling compounds (7a), (7b) and (7c) (approximately 15 mM) were prepared freshly in anhydrous dimethylsulfoxide (DMSO) for each labelling experiment. Likewise, a stock solution of insulin (200 μg/ml, 35 μM; bovine insulin, MW 5733,49; Sigma-Aldrich, Taufkirchen, FRG) in 50 mM phosphate buffer, pH 7.2, 0.02 mM ethylenediaminetetraacetic acid (EDTA) (PBS/EDTA) was prepared. For labelling, insulin (35 nMoles, representing 105 nMoles amino functions (2 NH2-termini (chain A and B), 1 lysine side chain)) was reacted with active esters (350 nMoles) in a final volume of 1.25 ml PBS/EDTA, containing no more than 2% (v/v) DMSO in any experiment. The solutions were mixed on an end-to-end mixer for 90 min at RT and the labelling reactions were terminated by addition of glycine (1 mMole) in PBS/EDTA. Mixing was continued for 60 min at RT before the solution was dialyzed against PBS/EDTA (MWCO 2,000). After another dialysis against water, the heterogeneity of the samples and the molecular masses of the products were determined in MALDI-TOF-MS analyses (Bruker-Reflex II instrument; Bruker-Daltonik, Bremen, FRG). The mean labelling degree was calculated as described elsewhere (Olivier V, Meisen I, Meckelein B, Hirst T R, Peter-Katalinic J, Schmidt M A, Frey A (2003). Influence of targeting ligand flexibility on receptor binding of particulate drug delivery systems. Bioconjug Chem. 14:1203-8.) (Table 6).
# [1] = Hydrolysis half-lifes of active ester derivatives by 1H-NMR; assay type: physicochemical; settings: 50 mM deuterated phosphate buffer, pD 7.2, room temperature, 1 mM active ester
# Method: The hydrolysis half-lifes of active ester derivatives in physiological buffer were determined by ^1H-NMR spectroscopy. For this purpose a 50 mM phosphate buffer in deuterium oxide (D2O, […]) (deutero, Kastellaun, FRG), pD 7.2, was prepared. The phosphate salts were lyophilized thrice from fresh deuterium oxide. Finally, fresh D2O was added and the pD value was verified. […] To initiate the hydrolysis reaction 10 μl of these solutions were added to 490 μl of 50 mM deuterated phosphate-buffer, pD 7.2, spiked with 3-(trimethylsilyl)-1-propanesulfonic acid-D6 sodium salt (TMSPS) (Merck, Darmstadt, FRG) (0.1 mg/ml) as internal reference, resulting in a final concentration of active ester derivatives of 1 mM. The hydrolysis of the active esters was monitored at room temperature by ^1H-NMR spectroscopy with an Avance DRX-600 system (Bruker BioSpin, Rheinstetten, FRG) at 600 MHz. The first ^1H-spectrum was recorded 6-12 min after addition of the phosphate buffer, additional spectra were recorded at about 20, 40, 60, 120, 240, 360 and 1000-1600 min (over night). After the last measurement the pD-value was verified again. The hydrolysis reaction of each active ester derivative was measured in 2-3 independent experiments.
# The Bruker software X-WIN-NMR (V 2.5; Bruker BioSpin) was used to acquire and process the data recorded at different time points. For this purpose, signals which were altered in intensity or chemical shift due to deuterolysis and which were not superimposed by signals of other nuclei were integrated and put in relation to the internal standard TMSPS. The concentration of the non-hydrolyzed active ester derivatives was calculated from the change of peak integrals and was plotted versus time.
# [2] = target: T2, Streptavidin AlexaFluor680 (Streptomyces avidinii, UniProt P22629); assay: Dot blot detection of hydrazide-labelled glycoprotein (porcine mucin) on nitrocellulose; settings: periodate-oxidized mucin, mean ± SEM
# T2 sequence (P22629 25-183): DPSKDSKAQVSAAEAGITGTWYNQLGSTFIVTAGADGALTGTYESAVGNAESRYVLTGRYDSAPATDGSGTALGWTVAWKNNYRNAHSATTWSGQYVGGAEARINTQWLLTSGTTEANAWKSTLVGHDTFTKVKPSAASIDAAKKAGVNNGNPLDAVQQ
# Method: All subsequent treatments of the membranes were carried out in tight fitting trays. For oxidation or the carbohydrate moieties of the glycoprotein the membranes were incubated for 20 min at RT in 3 ml (0.21 ml/cm^2 membrane) 10 mM sodium m-periodate (Sigma-Aldrich, Taufkirchen, FRG) in 100 mM sodium acetate buffer (pH 5). They were washed another 3× in D-PBS, incubated each for 60 min at RT with 3 ml (0.21 ml/cm^2 membrane) of 2.5 μM labelling-hydrazide (Table 4) in 100 mM sodium acetate buffer (pH 5), washed again 3× in D-PBS and blocked with 1% (w/v) Casein (Hammarsten grade, BDH, Poole, UK) in D-PBS (Casein-PBS) for 30 min at RT. Blocked membranes were incubated for 90 min at RT with 4 ml (0.28 ml/cm^2 membrane) diluted monoclonal antibodies against 2,4-dichlorophenoxyacetic acid or monoclonal antibodies against DIG or with AlexaFluor680-labelled streptavidin (for working concentrations see Table 3) in Casein-PBS and washed 3× with D-PBS. […] After intense washing with D-PBS fluorescence was read out on a fluorescence imager (Odyssey Infrared Imager, LI-COR Biosciences, Lincoln, Nebr., USA) and quantitated with an appropriate image analysis software (Odyssey Software v.1.2). Statistical analysis of the data was carried out with the GraphPad Prism Suite (v.4.0.0, GraphPad Software, San Diego, Calif., USA).
# [3] = target: T2, Streptavidin AlexaFluor680; assay: Dot blot detection of active ester-labelled ovalbumin on nitrocellulose; assay type: binding; set-up: purchased Invitrogen; settings: ovalbumin conjugate, mean ± SEM
# Method: Stock solutions of 65-100 mg/ml (120-330 mM) active ester of the labelling compounds (Table 2) were prepared freshly in anhydrous dimethylsulfoxide (DMSO) for each labelling experiment. […] For labelling 100 nMoles ovalbumin (representing 2 μMoles amino functions) were reacted with 1.5 μMoles of active ester in a final volume of 300 μl 100 mM sodium tetraborate, pH 8.2, containing no more than 5% (v/v) DMSO in any experiment. The solutions were mixed on an end-to-end mixer for 180 min at RT and the labelling reactions were terminated by addition of 1.5 mmoles glycine in sodium tetraborate buffer. Mixing was continued overnight at 4° C. before the solutions were dialyzed against sodium tetraborate buffer. The concentrations of the labelled protein were determined by standard assays and serial dilutions of the stock solutions were prepared.
# streptavidin-HRP = target: T3, streptavidin-HRP (Streptomyces avidinii, UniProt P22629); assay: Detection of active ester-labelled insulin on PVDF filterplates (HRP/TMB); assay type: binding; settings: for Detection limit of labelled protein: insulin conjugate on PVDF, mean ± SEM; for Detection limit of label: insulin conjugate, converted from pg protein with labelling degree (Table 6)
# T3 construct: purchased Vector Labs, Burlingame, Calif., USA
# T3 sequence (P22629 25-183): as above
# Method: as §1
# The concentrations of the labelled polypeptides were determined by standard assays and serial dilutions of the solutions were prepared in PBS/EDTA. Equal amounts of the diluted solutions (1,000-0.12 ng conjugate/well, each in 50 μl PBS/EDTA) were applied onto 96-well polystyrene filterplates equipped with polyvinylidene fluoride (PVDF) membrane bottoms (Corning, Corning, N.Y., USA), which had been pre-activated with 70% (v/v) ethanol and washed with phosphate buffer. The plates were incubated for 30 min at room temperature before the solutions were sucked through the membranes with a MultiScreen vacuum manifold (Millipore, Schwalbach, FRG). […] Nonspecific binding sites were blocked with 200 μl/well 2% (w/v) caseinate in D-PBS (Caseinate-PBS) for 30 min at RT and the solutions were removed. […] After the plates were washed another 6× with PBST with the vacuum manifold and 6× with D-PBS with the plate washer, color was developed at room temperature in the dark with 75 μl/well of a highly sensitive tetramethylbenzidine-based substrate reagent (1 mM 3,3′,5,5′-tetramethylbenzidine, 3 mM H2O2 in 200 mM potassium citrate, pH 4.0; (Frey A, Meckelein B, Externest D, Schmidt M A (2000). A stable and highly sensitive 3,3′,5,5′-tetramethylbenzidine-based substrate reagent for enzyme-linked immunosorbent assays. J Immunol Methods. 233:47-56.)). The reaction was terminated after 30 min with 125 μl/well 1 M sulfuric acid.
# T1 sequence (P01317 25-54 limits assumed): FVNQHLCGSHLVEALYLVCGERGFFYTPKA
# T1 sequence (P01317 85-105 limits assumed): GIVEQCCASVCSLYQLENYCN
Compound,Mean labelling degree (insulin),Hydrolysis half-life [1],Detection limit of proteins after labelling with hydrazide derivatives [2],Detection limit of proteins after labelling with active ester derivatives [3],Detection limit of labelled protein (streptavidin-HRP),Detection limit of label (streptavidin-HRP)
O=C(COc1ccc(Cl)cc1Cl)ON1C(=O)CCC1=O [(1b)],0.52 Mole label: Mole insulin,25 min,,,,
"O=C(COc1ccc(Cl)cc1Cl)NCCCCCC(=O)ON1C(=O)CC(S(=O)(=O)[O-])C1=O.[Na+] (centres unmarked) [(3b), 6-(2-(2,4-dichlorophenoxy)acetylamino)-hexanoic acid-N-hydroxysulfosuccinimidyl-ester-sodium Salt]",1.61 Mole label: Mole insulin,231^(*^) min,,,,
"O=C(COc1ccc(Cl)cc1Cl)NCCCCCCCCCCC(=O)ON1C(=O)CC(S(=O)(=O)[O-])C1=O.[Na+] (centres unmarked) [(3d), 11-(2-(2,4-dichlorophenoxy)acetylamino)-undecanoic acid-N-hydroxysulfosuccinimidyl-ester-sodium Salt]",0.38 Mole label: Mole insulin,,,,,
"NNC(=O)CCCCCNC(=O)CCCC[C@@H]1SC[C@@H]2NC(=O)N[C@@H]21 [Biotin-C6 hydrazide, LC-(+)-Biotinoylhydrazide]",,,49.1 ± 6.3^ pg,,,
"C[C@]12CC[C@H](OCC(=O)NCCCCCC(=O)ON3C(=O)CCC3=O)C[C@H]1CC[C@@H]1[C@@H]2C[C@@H](O)[C@]2(C)[C@@H](C3=CC(=O)OC3)CC[C@]12O [DIG-C6-NHS, Digoxigenin-3-O-methylcarbonyl-ε-aminocaproyl-N-hydroxysuccinimide]",1.50 Mole label: Mole insulin,248^(*^) min,,,,
"O=C(CCCCCNC(=O)CCCC[C@@H]1SC[C@@H]2NC(=O)N[C@@H]21)NCCCCCC(=O)ON1C(=O)CCC1=O [NHS-SLC-biotin, SLC-NHS-(+)-Biotin]",0.08 Mole label: Mole insulin,,,39063.0 ± 5508.0 pg,"1,277,778.0 ± 237,333.4 pg","17,829.0 ± 3,311.5 fMole"
"O=C(CCCC[C@@H]1SC[C@@H]2NC(=O)N[C@@H]21)NCCCCCC(=O)ON1C(=O)CC(S(=O)(=O)[O-])C1=O.[Na+] (stereo partly drawn) [Sulfo-NHS-LC-biotin, Sulfo-LC-(+)-Biotin]",1.72 Mole label: Mole insulin,101 min,,248.0 ± 66.6 pg,"33,854.2 ± 6,107.3 pg","10,156.0 ± 1,832.1 fMole"
"O=C1N[C@H]2[C@H](CS[C@H]2CCCCC(=O)ON2C(=O)CC(S(=O)(=O)[O-])C2=O)N1.[Na+] (stereo partly drawn) [Sulfo-NHS-biotin, Sulfo-Succinimidyl-(+)-biotin]",1.79 Mole label: Mole insulin,62 min,,246.5 ± 67.2 pg,"62,500.0 ± 15,343.4 pg","19,512.6 ± 4,790.2 fMole"
SLC-(+)-Biotinoylhydrazide [Biotin-C11 hydrazide],,,114.6 ± 10.4^ pg,,,
